Measurements published in patent US20190175785A1, “SILK FIBROIN SYSTEMS FOR ANTIBIOTIC DELIVERY” (Trustees of Tufts College, priority 2009, published 2019).
Converted amounts (≈) assume the structure as drawn. Read-outs that look alike come from different tables or passages of the source.

Experiments:
[1] = test system: E. coli ATCC 25922; details: E. coli ATCC 25922, NCCLS (2000); cited from earlier work
[2] = test system: S. aureus ATCC 25923; details: S. aureus ATCC 25923, NCCLS (2000); cited from earlier work
[3] = cited from earlier work
[4] = Long-term stability study, residual activity of stored penicillin; format: physicochemical; details: stored at 25° C. and 37° C.
Procedure: To determine if incorporation into silk films would have a similar stabilizing effect to that observed for enzymes, a long-term stability study was carried out comparing the residual activity of penicillin stored in 8% (w/v) silk films or in solution at 4° C. (refrigeration), 25° C. (room temperature) and 37° C. (body temperature).
Stability was also characterized for dry penicillin powder stored at 4° C., 25° C., and 37° C. Comparison of the stability of penicillin stored in silk films, in solution and in dry powder format over 60 days is shown in FIG. 14.

| Compound | MIC [1] [µg/mL] | MIC [2] [µg/mL] | time of breakdown in solution ([3]; 37° C.) [h] | time of breakdown in solution ([3]; room temperature (25° C.)) | stability of penicillin in solution [4] |
| --- | --- | --- | --- | --- | --- |
| Cc1nnc(SCC2=C(C(=O)O)N3C(=O)[C@@H](NC(=O)Cn4cnnn4)[C@H]3SC2)s1 [cefazolin] | 1.0 (≈ 2.2 µM) | 0.25 (≈ 0.55 µM) | – | – | – |
| gentamicin | 0.5 | 0.25 | – | – | – |
| penicillin | – | – | ≤ 24 | within weeks | rapidly declines |
